How the values were obtained:
HA = settings: cited from earlier work
IFV = settings: ref Matsubara et al., [2010]; cited from earlier work
From the text: The first step in the infection of cells by IFV is the binding of HA to sialic acid-containing glycoconjugates (Skehel and Wiley, [2000]). Human HA strains preferentially bind to the terminal sialylgalactose structure (Neu5Acα2−6Gal), whereas avian and equine strains bind to the corresponding Neu5Acα2−3Gal (Suzuki, [2005]).

[1] = tested on: IFV (H1N1, A/Puerto Rico/8/34); assay: rRT-PCR quantification of IFV captured on membranes; format: binding, influenza virus A/Puerto Rico/8/34 (H1N1); settings: 1600 pfu incubated 1 h at 25°C; plastic plates; estimated from rRT-PCR standard curve (M gene, R^2 0.954)
Method: The pep-PE/DOPC (50:50) lipid monolayer was attached horizontally to plastic plates as described above. […] After washing with PBS, plates were incubated with AVL viral lysis buffer (QIAamp Viral RNA Mini Kit, QIAGEN) for 10 min. Viral RNA was extracted according to the manufacturer's instructions.
One-step RT-PCR was performed using QuantiTect SYBR Green PCR Kit (QIAGEN) with forward and reverse primers for the sequences of the matrix protein (M) gene for 244 bp (forward M30F2/08: 5′-[…] -3′; reverse M264R3/08: 5′-[…] -3′; Eisfeld et al., [2014]). The reaction was performed using a PikoReal Real-Time PCR system (TCR0096, Thermo Scientific). PCR was set up in a 10-μL reaction volume containing 5 μL of 2 × QuantiTect SYBR Green RT-PCR master mix, 0.1 μL of QuantiTect RT Mix, 0.5 μL of RNA template, 1 μL of forward and reverse primers (10 μM each), and 3.4 μL of RNase free water. […] Fluorescence was measured at the end of each cycle. […] A melting curve analysis consisted of 60°C for 30 s, and followed by a temperature increase to 95°C for 10 s with the continuous reading of fluorescence. The amplified products were analyzed by agarose gel electrophoresis (2.5% agarose) and detected by staining with ethidium bromide (Supplementary Figure 3A). […]

Ala-Arg-Leu-Pro-Arg
binding to receptor-binding site of HA (HA; ref Matsubara et al., [2010]): binds to the receptor-binding site of HA by mimicking sialic acid | inhibition of IFV infection in cells (IFV): exerts the inhibitory effects on IFV infection in cells

Neu5Acα2–3Galβ1–4Glcβ1–1′Cer [GM3]
HA binding to GM3 (HA; ref Suzuki et al., [1986], Sato et al., [1996]): HA binds to GM3 through the sialyllactose structure

CCCCCCCC/C=C\CCCCCCCC(=O)OC[C@H](COP(=O)([O-])OCC[N+](C)(C)C)OC(=O)CCCCCCC/C=C\CCCCCCCC [DOPC, Dioleoylphosphatidylcholine]
amount of virus captured on the membrane [1]: 100 pfu
